Assay [1] has as its system non-transformed primary human fibroblasts. The experiment in a line: Cell viability, Alamar Blue assay. It counts as cell-based. The settings on record: telomerase negative cells, 7 days. The procedure:
(§1) FIGS. 2a to 2c show NRAS^mut melanoma cells (FIG. 2a), BRAF-V600E/NRAS mutant cells derived from melanoma patients resistant to BRAF/MEK inhibitors (FIG. 2b), or non-transformed melanocytes and fibroblasts (FIG. 2c) were treated with 6-thio-dG for 7 days. Cell viability was measured by Alamar Blue assay and calculated relative to DMSO-treated cells. […] Cell death was assessed by PSVUe staining. Percent of apoptotic cells is shown. […] Mean TRF length expressed as kilobase pairs is indicated at the bottom. […] FIG. 2g provides a bar graph showing that DNA damage was assessed by γH2AX staining. Data represent average from three independent experiments ±SEM. *p<0.05; **p<0.01; ***p<0.005 in unpaired Student's t-test. […] Tumor volume was measured and average tumor volume (n=4) ±SEM was plotted vs. time.
(§2) Cells were seeded in 96-well plates and treated with drugs. After 6 days, cell viability was assessed following 6h incubation with […] Alamar Blue (ThermoFisherScientific, Philadelphia, Pa.) by measuring fluorescence using an EnVision Xcite Multilabel plate reader (Perkin Elmer, Waltham, Mass.). Cell death was determined by flow cytometry using PSVue-643 (Molecular Targeting Technologies) or Annexin V (640919, Biolegend, San Diego, Calif.) and Propidium Iodide (Sigma) staining. Samples were analyzed using a BD LSRII flow cytometer (BD Biosciences, San Jose, Calif.).
For orientation: Alamar Blue is a resazurin reagent that responds to reducing activity.

In assay [2] the test system is non-transformed primary human melanocytes. The experiment in a line: Cell viability, Alamar Blue assay. The settings on record: telomerase negative cells, 7 days. The format is cell-based. The procedure: as §1, §2
Assay [3] deals with detoxifying enzymes SOD2, GPX1 and UCP2. Description: mRNA levels of antioxidant enzymes by qRT-PCR. The format is cell-based, Human. Conditions: NRAS mutant melanoma cells, 1 μM 6-thio-dG for 7 days. As for the experimental part: FIGS. 3a to 3g provides graphs showing that telomere dysfunction enhances oxidative stress leading to upregulation of an antioxidant program. […] Mitochondrial superoxide production was measured by MitoSox Red fluorescence (FIGS. 3c, and 3d) and expressed as fluorescence relative to vector or DMSO controls. […] FIG. 3f provides a bar graph showing that SOD2 was silenced using shRNA. Transduced M93-047 cells were treated with DMSO or 1 μM of 6-thio-dG and cell death was assessed by Annexin V/PI straining. As presented in FIG. 3g, M93-047 cells were transduced with a SOD2 lentiviral construct or empty vector control (pLX304). Transduced cells were treated with increasing doses (1, 2.5 and 5 μM) of 6-thio-dG for 7 days and cell death was assessed. Data represent average from three independent experiments ±SEM. *p<0.05; **p<0.01; ***p<0.005 in unpaired Student's t-test.
Total RNA (1 μg) was reverse transcribed using Maxima First-Strand cDNA synthesis kit (Thermo Scientific, Waltham, Mass.). Fast SYBR Green Master Mix (Applied Biosystems, Waltham, Mass.) was used with 100 ng cDNA template and 250 nM primers for the evaluation of target gene expression. Amplification was performed in triplicate using ABI PRISM 7500 Fast RT PCR System (Applied Biosystems, Waltham, Mass.) and expression of mRNA was assessed using the […].
(In general: Real-time PCR tracks product formation cycle by cycle.)

The subject of assay [4] is NRAS mutant melanoma cells. The experiment in a line: Telomere dysfunction-induced foci (TIF) assay, IF-FISH. It counts as cell-based, Human. Conditions: 6-thio-dG for 7 days. The procedure:
NRAS mutant melanoma cells WM3000 were transduced with TERT shRNA and treated with NAC (mM) for 7 days. […] Representative images are shown. (scale bar=10 μm). Quantification of TIF positive cells is plotted in FIG. 13b. Cells were scored as TIF positive when three or more g-H2AX foci (green) were co-localizing with telomere foci (red). Data represent average of thirteen fields imaged +/−SD.
NRAS^mut melanoma cells were treated with 6-thio-dG for 6, 12 or 18 days. As presented in FIG. 15a, relative cell number was assessed by Crystal Violet assay and calculated relative to DMSO-treated cells. Data represent average of three independent experiments +/−SD. […] NRAS^mut cells were treated with 6-thio-dG for 7 days and telomere induced foci (TIF) was determined by indirect immunofluorescence combined with fluorescence in situ hybridization (FISH) (FIG. 15c). […] Quantification of TIF assay is plotted in FIG. 15d. Cells were scored as TIF positive when four or more γ-H2AX foci (green, center row of FIG. 15c labelled as γH2AX) were co-localizing with telomere foci (red, top row of FIG. 15c labelled as Telomeres). […] P values were calculated by unpaired Student's t-test.
For TIF analysis, indirect immunofluorescence (IF) combined with fluorescence in situ hybridization (FISH) was performed as previously described with some modifications. […] TIF were quantified from at least three independent experiments.

Regarding `Nc1nc2c(ncn2[C@H]2C[C@H](O)[C@@H](CO)O2)c(=S)[nH]1` [6-thio-dG, 6-thio-2′-deoxyguanosine], the cell viability entry in assay [1] is “did not significantly affect”. In addition, in assay [2], the cell viability entry is “did not significantly affect”. For the same compound, in assay [3], the “GPX1 mRNA levels” value is on record as “upregulation”, the “SOD2 mRNA levels” value was “upregulation” and the “UCP2 mRNA levels” value is listed as “upregulation”. In addition, the TIFs entry in assay [4] is recorded as “increased levels”.

For the origin of these results see patent US20190282600A1, “COMBINATION THERAPIES TARGETING TERT DEPENDENCY FOR CANCER THERAPY” (The Wistar Institute of Anatomy and Biology, priority 2018, published 2019).
